Measurements from the NIST ThermoML archive (doi:10.1016/j.jct.2017.02.022).

Columns and labels:
[1] = molar heat capacity at constant pressure; conditions: 101.33 kPa, Liquid, Small sample (50 mg) DSC
[2] = 101.3 kPa, Liquid; for speed of sound: Frequency=3 MHz, Sing-around technique in a fixed-path interferometer; for mass density: Vibrating tube method
[3] = refractive index (Na D-line) (dimensionless); conditions: 101.3 kPa, Liquid, Standard Abbe refractometry
[4] = xn = mol fraction of the nth substance listed; conditions: 101.3 kPa, Liquid, x2 = 0; for speed of sound: Frequency=3 MHz, Sing-around technique in a fixed-path interferometer; for mass density: Vibrating tube method
[5] = refractive index (Na D-line) (dimensionless); xn = mol fraction of the nth substance listed; conditions: 101.3 kPa, Liquid, Standard Abbe refractometry, x2 = 0

COS(=O)(=O)[O-].Cn1cc[n+](C)c1 [1,3-dimethylimidazolium methylsulfate]
Conditions	mass density, [2] [kg/m3]	molar heat capacity at constant pressure, [1] [J/K/mol]	refractive index, [3]	speed of sound, [2] [m/s]
298 K	1329	298.1	1.483	1811
303 K	1322	303.1	1.481	1799
308 K	1319	308	1.48	1787
313 K	1315	312.9	1.479	1775

CCn1cc[n+](C)c1.COS(=O)(=O)[O-] [1-ethyl-3-methylimidazolium methylsulfate]
Conditions	mass density, [2] [kg/m3]	molar heat capacity at constant pressure, [1] [J/K/mol]	refractive index, [3]	speed of sound, [2] [m/s]
298 K	1292	313.3	1.48	1762
303 K	1289	319.9	1.479	1750
308 K	1285	326.6	1.478	1739
313 K	1282	333.2	1.476	1727

CCCCO [butan-1-ol]
Conditions	mass density, [2] [kg/m3]	refractive index, [3]	speed of sound, [2] [m/s]
298 K	806	1.397	1240
303 K	802	1.395	1224
308 K	798	1.392	1206
313 K	794	1.389	1190

CCCCO [butan-1-ol] + CCn1cc[n+](C)c1.COS(=O)(=O)[O-]
Conditions	mass density, [4] [kg/m3]	refractive index, [5]	speed of sound, [4] [m/s]
298 K	806	1.397	1240
303 K	802	1.395	1224
308 K	798	1.392	1206
313 K	794	1.389	1190

CCCCO [butan-1-ol] + COS(=O)(=O)[O-].Cn1cc[n+](C)c1
Conditions	mass density, [4] [kg/m3]	refractive index, [5]	speed of sound, [4] [m/s]
298 K	806	1.397	1240
303 K	802	1.395	1224
308 K	798	1.392	1206
313 K	794	1.389	1190

CCCCCO [pentan-1-ol]
Conditions	mass density, [2] [kg/m3]	refractive index, [3]	speed of sound, [2] [m/s]
298 K	811	1.408	1276
303 K	807	1.407	1259
308 K	803	1.406	1242
313 K	800	1.404	1226

CCCCCO [pentan-1-ol] + CCn1cc[n+](C)c1.COS(=O)(=O)[O-]
Conditions	mass density, [4] [kg/m3]	refractive index, [5]	speed of sound, [4] [m/s]
298 K	811	1.408	1276
303 K	807	1.407	1259
308 K	803	1.406	1242
313 K	800	1.404	1226

CCCCCO [pentan-1-ol] + COS(=O)(=O)[O-].Cn1cc[n+](C)c1
Conditions	mass density, [4] [kg/m3]	refractive index, [5]	speed of sound, [4] [m/s]
298 K	811	1.408	1276
303 K	807	1.407	1259
308 K	803	1.406	1242
313 K	800	1.404	1226

CCCO [propan-1-ol]
Conditions	mass density, [2] [kg/m3]	refractive index, [3]	speed of sound, [2] [m/s]
298 K	800	1.383	1208
303 K	796	1.382	1191
308 K	792	1.38	1174
313 K	789	1.378	1158

CCCO [propan-1-ol] + CCn1cc[n+](C)c1.COS(=O)(=O)[O-]
Conditions	mass density, [4] [kg/m3]	refractive index, [5]	speed of sound, [4] [m/s]
298 K	800	1.383	1208
303 K	796	1.382	1191
308 K	792	1.38	1174
313 K	789	1.378	1158

CCCO [propan-1-ol] + COS(=O)(=O)[O-].Cn1cc[n+](C)c1
Conditions	mass density, [4] [kg/m3]	refractive index, [5]	speed of sound, [4] [m/s]
298 K	800	1.383	1208
303 K	796	1.382	1191
308 K	792	1.38	1174
313 K	789	1.378	1158
